# Tested on: Romaine lettuce (Lactuca sativa L.) plants
# Test: Post-emergence herbicidal activity on potted Romaine lettuce plants (soil or foliar application)
# Type: in vivo
# Details: foliar application, lettuce at 2 to 3 leaves, two weeks after treatment
# Procedure: The tests were performed on Romaine lettuce (Lactuca sativa L.) plants at the stage 2 to 3 leaves. The plants were grown in mini-pots packed with soil, dimensions 2×2×5 cm, one plant per mini-pot. Test compounds were dissolved in 0.1% aqueous solution water solution of Silwet adjuvant to final concentrations ranging from 0 (Control) to 0.0001%. The test compounds were applied on soil (1 ml per pot) or foliar with airbrush (0.1 ml per pot). Each concentration was tested on 20 plants. Two weeks after the treatment the herbicidal effects of the respective test material were visually evaluated (aboveground part and roots. Then the aboveground part of the plants was neatly cut and weighed (wet weight) to assess the growth inhibition caused by the test compound. The growth inhibition (GI) was calculated as following: […]
# Where Mt and Mc are median wet weight of treated and control plants, respectively. In the context of the invention, the herbicidal effect was assessed by concentration of the compound causing more than 85% of Growth Inhibition (GI) or irreversible damage of the plants (Table 3). Herbicidal activity of selected DHAAs is summarized in Table 4 (soil application) and Table 5 (Foliar application).
row,Compound,Score (test material causing more than 85% of Growth Inhibition or irreversible plant damage)
1,"O=C(Cc1cc(Cl)sc1Cl)OCc1ccccc1 [compound 5669, benzyl 2-(2,5-dichlorothiophen-3-yl)acetate]",strong (0.01 to 0.05)

# Same assay, conditions: soil application, lettuce at 2 to 3 leaves, two weeks after treatment
row,Compound,Score (test material causing more than 85% of Growth Inhibition or irreversible plant damage)
1,"O=C(Cc1cc(Cl)sc1Cl)OCc1ccccc1 [compound 5669, benzyl 2-(2,5-dichlorothiophen-3-yl)acetate]",strong (0.01 to 0.05)
2,"CC(=O)NCCc1cc(Cl)sc1Cl [compound 5629, N-[2-(2,5-dichlorothiophen-3-yl)ethyl]acetamide]",moderate (0.5)
3,"CC(=O)NCCc1nc(Cl)sc1Cl [compound 5650, N-[2-(2,5-dichloro-1,3-thiazol-4-yl)ethyl]acetamide]",moderate (0.5)

# Tested on: Seeds of Lettuce R. (Super-Jericho)
# Test: Filter paper bioassay with lettuce seeds: germination and early plant development, Minimal Effective Concentration (MEC)
# Type: in vivo
# Details: lettuce seeds on filter paper, 0 to 1 mmol/l, visually assessed after 6 days
# From the text: Materials: Seeds of Lettuce R. (Super-Jericho, non-sterilized) were obtained from Ben Shahar Moshe Ltd., 99% purity. The test compounds listed in the Table 2 below were synthetized de novo or purchased from different vendors.
# Filter Paper Bioassays with Lettuce seeds: The protocol is following Bertin et al. 2009 and Movellan et al. 2014 with specified modifications as described below.
# Seeds were placed on Whatman no. 1 filter paper (Whatman, Middlesex, U.K.) in Petri dishes (10 seeds per plate) with 2.0 ml of aqueous solution of a test material in concentration ranged from 0 (control) to 1 mmol/l were placed in a tray tilted at 45[…]. The trays were kept in dark for 48 hours and then transferred to the growth chamber with 6/18 dark/light cycle for 4 days. Each experiment was performed at least with two repeats.
# The development of plants' radicle and shoots were visually assessed 6 days after the beginning of the test to determine Minimal Effective Concentration (MEC) of a test material. In the context of the invention, MEC is defined as the lowest concentration level of a test material that caused deviation (absence of germination or malformation of radicle or shoots) from the plant's development in the Control group.
row,Compound,"Score (activity score of Minimal Effective Concentration, MEC)"
1,"NC(N)=NCCCc1cc(Cl)sc1Cl [compound 5765, N″-[3-(2,5-dichlorothiophen-3-yl)propyl]guanidine]",Strong (0.01 mM)
2,"O=C(O)C(F)(F)c1nnn[nH]1 [compound 5799, difluoro(1H-tetrazol-5-yl)acetic acid]",Moderate (0.1 mM)
3,"O=C(O)C1Cc2nnsc2S1 (centres unmarked) [compound 5750, 5H,6H-thieno[3,2-d][1,2,3]thiadiazole-5-carboxylic acid]",Moderate (0.1 mM)
4,"O=C(NCC(F)(F)C(=O)O)c1ccnc(Br)c1 [compound 6618, 3-[(2-bromopyridin-4-yl)formamido]-2,2-difluoropropanoic acid]",Strong (0.01 mM)
5,"2-amino-3-(1H-1,2,4-triazol-1-yl)propanoic acid dihydrochloride [compound 5633, 2-amino-3-(1H-1,2,4-triazol-1-yl)propanoic acid dihydrochloride [HCl]]",Strong (0.01 mM)
6,"NCCCc1ccnc(Br)c1 [compound 6649, 3-(2-bromopyridin-4-yl)propan-1-amine]",Moderate (0.1 mM)
7,"sodium 2-(2-chloro-1,3-thiazol-5-yl)-2,2-difluoroacetate [compound 5721]",Moderate (0.1 mM)
8,"propyl[2-(1H-1,2,4-triazol-3-yl)ethyl]amine [compound 5660]",Weak (Higher than 0.1 mM)
9,"O=C(O)C(F)(F)c1ccc(F)c(Br)n1 [compound 6681, (6-bromo-5-fluoropyridin-2-yl)(difluoro)acetic acid]",very strong
10,"O=C(O)C(=O)c1c(Cl)sc(Cl)c1Cl [compound 5645, 2-oxo-2-(245-trichlorothiophen-3-yl)acetic acid]",Strong (0.01 mM)
11,N-(6-bromopyridin-2-yl)guanidine hydrochloride [compound 6637],Weak (Higher than 0.1 mM)
12,2-(2-phenoxypyridin-4-yl)ethan-1-amine [compound 6625],Weak (Higher than 0.1 mM)
13,"Brc1cc(CNCc2ccnc(Br)c2)ccn1 [compound 686, bis[(2-bromopyridin-4-yl)methyl]amine]",Weak (Higher than 0.1 mM)
14,"O=C(O)C(F)(F)c1ccc(C(F)(F)F)c(Br)n1 [compound 6682, [6-bromo-5-(trifluoromethyl)pyridin-2-yl](difluoro)acetic acid]",Strong (0.01 mM)
15,"N-[2-(2,5-dichlorothiophen-3-yl)ethyl]-N′-(2-hydroxypropyl)guanidine [compound 5727]",Moderate (0.1 mM)
16,"2-(2,5-dichloro-1,3-thiazol-4-yl)ethan-1-amine [compound 5691]",Strong (0.01 mM)
17,"NC(=O)Cc1ccsc1 [compound 591, 2-(thiophen-3-yl)acetamide]",moderate
18,"2-(2-chloro-1,3-benzothiazol-4-yl)-2,2-difluoroacetic acid [compound 5786]",Moderate (0.1 mM)
19,(2E)-3-(5-chlorothiophen-2-yl)prop-2-enoic acid [compound 5607],Moderate (0.1 mM)
20,"O=C(Cc1csc(Cl)n1)OCC(=O)c1cccc(Br)n1 [compound 5801, 2-(6-bromopyridin-2-yl)-2-oxoethyl 2-(2-chloro-1,3-thiazol-4-yl)acetate]",Moderate (0.1 mM)
21,2-(6-bromopyrimidin-4-yl)ethan-1-amine [compound 6621],Strong (0.01 mM)
22,"2,2-difluoro-2-{2-[3-fluoro-5-(trifluoromethyl)pyridin-2-yl]-1,3-thiazol-4-yl}acetic acid [compound 5736]",Moderate (0.1 mM)

row,Compound,"Score (activity score of Minimal Effective Concentration, MEC)"
1,"2-amino-2-(2,5-dichlorothiophen-3-yl)acetic acid [compound 5659]",Weak (Higher than 0.1 mM)
2,"N=C(NCCc1cc(Cl)sc1Cl)Nc1ccc(O)cc1 [compound 5766, N-[2-(2,5-dichlorothiophen-3-yl)ethyl]-N′-(4-hydroxyphenyl)guanidine]",Moderate (0.1 mM)
3,"2-(1,2,3-thiadiazol-4-yl)acetic acid [compound 5748]",Moderate (0.1 mM)
4,(6-bromopyridin-2-yl)methyl 2-(2-chlorothiophen-3-yl)acetate [compound 5802],Moderate (0.1 mM)
5,2-bromopyridine-4-carboxylic acid [compound 692],Weak (Higher than 0.1 mM)
6,"C[N+](C)(C)CCc1nc(Cl)sc1Cl [compound 5680, 2-(2,5-dichloro-1,3-thiazol-4-yl)-NNN-trimethylethan-1-aminium]",Weak (Higher than 0.1 mM)
7,2-bromo-6-phenoxypyridine [compound 6645],Strong (0.01 mM)
8,"NC(=O)CC(N)c1ccnc(Br)c1 (centres unmarked) [compound 6616, 3-amino-3-(2-bromopyridin-4-yl)propanamide]",Weak (Higher than 0.1 mM)
9,"NCC(O)c1ccsc1 (centres unmarked) [compound 590, 2-amino-1-(thiophen-3-yl)ethan-1-ol]",weak
10,"O=C(O)c1ccc2ccnc(Cl)c2c1 [compound 6627, 1-chloroisoquinoline-7-carboxylic acid]",Moderate (0.1 mM)
11,"NCCc1ccsc1 [compound 588, 2-(thiophen-3-yl)ethan-1-amine]",weak
12,"2-[2-(4-chloro-2-fluorophenyl)-1,3-thiazol-4-yl]-2,2-difluoroacetic acid [compound 5734]",Moderate (0.1 mM)
13,"N′-[2-(2,5-dichlorothiophen-3-yl)ethyl]-N-(3-hydroxypropyl)guanidine [compound 5725]",Moderate (0.1 mM)
14,"2-(2-ethoxyethoxy)ethyl(2-chloro-1,3-thiazol-4-yl)acetate [compound 5800]",Strong (0.01 mM)
15,"3-(1H-1,2,4-triazol-1-yl)propanoic acid [compound 5628]",Weak (Higher than 0.1 mM)
16,"(2,6-dibromopyridin-4-yl)-2,2-difluoroacetic acid [compound 6632]",Weak (Higher than 0.1 mM)
17,"N-{2-[3-(2,5-dichlorothiophen-3-yl)propoxy]phenyl}guanidine [compound 5732]",Moderate (0.1 mM)
18,"[2,5-bis(trifluoromethyl)-1,3-thiazol-4-yl](difluoro)acetic acid [compound 5744]",Moderate (0.1 mM)
19,"O=C(O)C(=O)Cc1ccnc(Br)c1 [compound 6611, 3-(2-bromopyridin-4-yl)-2-oxopropanoic acid]",Weak (Higher than 0.1 mM)
20,"O=C(O)CCN1CCN(Cc2cc(Cl)sc2Cl)CC1 [compound 5626, 3-{4-[(2,5-dichlorothiophen-3-yl)methyl]piperazin-1-yl}propanoic acid]",Weak (Higher than 0.1 mM)
21,2-(2-bromopyridin-4-yl)ethan-1-amine [compound 688],Weak (Higher than 0.1 mM)

# Reference: patent US20240284907A1, “NOVEL DERIVATIVES OF NON-CODED AMINO ACIDS AND THEIR USE AS HERBICIDES” (FortePhest LTD., priority 2021, published 2024)
